Data set [1] can be described thus: (§1) Genotoxicity in CHO cells assessed as mitotic inhibition at 0.62 ppm after 60 mins in dark followed by 5 W/m'2 UV irradiation for 30 mins. The following applies: chinese hamster, CHO cells; read-out: Activity. The data set is classed as toxicity, cell-based, Cricetulus griseus.
For data set [2], the system named is CHO. The data set is described as §1. The data set is classed as toxicity, cell-based, Cricetulus griseus. The note with it: chinese hamster, cho, 0.5 h.
Data set [3] relates to CHO. Kind of data set: Genotoxicity in CHO cells assessed as mitotic inhibition at 1.25 ppm after 60 mins in dark followed by 5 W/m'2 UV irradiation for 30 mins. The class given is toxicity, cell-based, Cricetulus griseus. The following applies: chinese hamster, 0.5 h.
Data set [4] deals with CHO. Kind of data set: Genotoxicity against CHO cells after UV irradiation. The data set is classed as toxicity, cell-based, Cricetulus griseus. The following applies: chinese hamster.
For data set [5], the system named is CHO. Put plainly: Genotoxicity against CHO cells. The data set is classed as toxicity, cell-based, Cricetulus griseus. The following applies: chinese hamster.
Data set [6] concerns CHO. Put plainly: Genotoxicity in CHO cells assessed as chromosomal aberrations at 0.07 ppm after 60 mins in dark followed by 5 W/m'2 UV irradiation for 30 mins. The class given is toxicity, cell-based, Cricetulus griseus. The following applies: chinese hamster, 0.5 h.
Data set [7] relates to CHO. Kind of data set: Genotoxicity in CHO cells assessed as mitotic inhibition at 0.31 ppm after 60 mins in dark followed by 5 W/m'2 UV irradiation for 30 mins. The class given is toxicity, cell-based, Cricetulus griseus. The following applies: chinese hamster, 0.5 h.
For data set [8], the system named is CHO. Kind of data set: Genotoxicity in CHO cells assessed as chromosomal aberrations at 100 ppm after 90 mins in dark. The class given is toxicity, cell-based, Cricetulus griseus. The note with it: chinese hamster, 1.5 h.
Data set [9] relates to CHO. Put plainly: Phototoxicity against CHO cells assessed as mitotic inhibition at 12 ppm after UV irradiation. The data set is classed as cell-based, Cricetulus griseus. The following applies: chinese hamster.
For data set [10], the system named is CHO. Put plainly: Phototoxicity against CHO cells at 25 ppm. The class given is cell-based, Cricetulus griseus. The following applies: chinese hamster.
The subject of data set [11] is CHO. Put plainly: Genotoxicity in CHO cells assessed as chromosomal aberrations at 25 ppm after 60 mins in dark followed by 5 W/m'2 UV irradiation for 30 mins. The class given is toxicity, cell-based, Cricetulus griseus. The following applies: chinese hamster.
Data set [12] relates to CHO. Kind of data set: Genotoxicity in CHO cells assessed as mitotic inhibition at 6.3 ppm after 60 mins in dark followed by 5 W/m'2 UV irradiation for 30 mins. The data set is classed as toxicity, cell-based, Cricetulus griseus. The following applies: chinese hamster, 0.5 h.
Data set [13] deals with CHO. Kind of data set: Genotoxicity in CHO cells assessed as chromosomal aberrations at 50 ppm after 60 mins in dark followed by 5 W/m'2 UV irradiation for 30 mins. The class given is toxicity, cell-based, Cricetulus griseus. The note with it: chinese hamster.
Data set [14] deals with CHO. Kind of data set: Genotoxicity in CHO cells assessed as chromosomal aberrations at 100 ppm after 60 mins in dark followed by 5 W/m'2 UV irradiation for 30 mins. The note with it: chinese hamster, 0.5 h. The class given is toxicity, cell-based, Cricetulus griseus.
The test system of data set [15] is CHO. Kind of data set: Genotoxicity in CHO cells assessed as chromosomal aberrations at 12.5 ppm after 60 mins in dark followed by 5 W/m'2 UV irradiation for 30 mins. The data set is classed as toxicity, cell-based, Cricetulus griseus. The following applies: chinese hamster, 0.5 h.

Where a name gives a salt, the structure may show the parent alone.

As for `c1ccc2c(c1)[nH]c1cnccc12` [NORHARMANE], the inhibition at 0.5 h, 0.62 ppm in data set [1] was 0%.

Regarding `COc1ccc2c3c([nH]c2c1)C(C)=NCC3` [HARMALINE], the outcome in data set [2] and in data set [3] was Active.

With `O=C1C[C@@H]2OCC=C3CN4CC[C@]56c7ccccc7N1[C@H]5[C@H]2[C@H]3C[C@H]46` [STRYCHNINE], the Activity result in data set [4] and in data set [5] was “Not Active” each time.

Regarding `COc1ccc2[nH]c3c(c2c1)CCN=C3C`, the figures for the Activity result in data set [2], in data set [6] and in data set [7] were “Toxic”, 0% and “Active”, respectively.

Take `Cc1nccc2c1[nH]c1ccccc12` [HARMANE HYDROCHLORIDE]: the inhibition at 0.5 h, 0.62 ppm in data set [1] stood at 0%.

With `C=C[C@H]1C[N@@]2CC[C@H]1C[C@H]2[C@H](O)c1ccnc2ccc(OC)cc12` [QUININE], the Activity in [8] is given as 0%; in data set [9], “Active”; in data set [10], “Active”; in [11], “Toxic”; in [12], “Active”; in [13], “Toxic”. Also, the Activity entry in data set [14] and in data set [15] was “Toxic” each time.

For the origin of these results see ChEMBL document CHEMBL1148993, “UV-mediated genotoxicity of furanoquinoline and of certain tryptophan-derived alkaloids” (J Nat Prod, 1983).
